# How the values were obtained:
# Details in all cases: 72 h
# [1] = test system: U2OS; assay: relative viability EC50 (midpoint between 100% and the lowest measured viability); higher = less toxic
# [2] = test system: Calu-3; assay: as above
# [3] = test system: HepG2; assay: as above
# [4] = test system: Caco-2; assay: as above
# [5] = test system: Vero E6; assay: as above
# [6] = test system: U2OS; assay: cell viability relative to DMSO; higher = less toxic
# [7] = test system: Calu-3; assay: as above
# [8] = test system: HepG2; assay: as above
# [9] = test system: Caco-2; assay: as above
# [10] = test system: Vero E6; assay: as above
# [11] = test system: U2OS; assay: drug sensitivity score (DSS) for viability; higher = more toxic; extreme values may be limits of the assay
# [12] = test system: Calu-3; assay: as above
# [13] = test system: HepG2; assay: as above
# [14] = test system: Caco-2; assay: as above
# [15] = test system: Vero E6; assay: as above
SMILES,relative viability EC50 [1] [µM],relative viability EC50 [2] [µM],relative viability EC50 [3] [µM],relative viability EC50 [4] [µM],relative viability EC50 [5] [µM],cell viability ([6]; 1 nM) [%],cell viability ([6]; 10 nM) [%],cell viability ([6]; 100 nM) [%],cell viability ([6]; 1000 nM) [%],cell viability ([6]; 10000 nM) [%],cell viability ([7]; 1 nM) [%],cell viability ([7]; 10 nM) [%],cell viability ([7]; 100 nM) [%],cell viability ([7]; 1000 nM) [%],cell viability ([7]; 10000 nM) [%],cell viability ([8]; 1 nM) [%],cell viability ([8]; 10 nM) [%],cell viability ([8]; 100 nM) [%],cell viability ([8]; 1000 nM) [%],cell viability ([8]; 10000 nM) [%],cell viability ([9]; 1 nM) [%],cell viability ([9]; 10 nM) [%],cell viability ([9]; 100 nM) [%],cell viability ([9]; 1000 nM) [%],cell viability ([9]; 10000 nM) [%],cell viability ([10]; 1 nM) [%],cell viability ([10]; 10 nM) [%],cell viability ([10]; 100 nM) [%],cell viability ([10]; 1000 nM) [%],cell viability ([10]; 10000 nM) [%],drug sensitivity score [11],drug sensitivity score [12],drug sensitivity score [13],drug sensitivity score [14],drug sensitivity score [15]
CC(C)CN(C[C@@H](O)[C@H](Cc1ccccc1)NC(=O)O[C@H]1CCOC1)S(=O)(=O)c1ccc(N)cc1 [amprenavir],> 10,> 10,> 10,> 10,> 10,106,97.8,96.5,98.6,101,101,102,99.3,97.7,107,114,88.9,92.7,96.5,87.7,103,100,106,87.2,87.7,110,102,93.9,101,93.4,0,0,0,0.6,0
CCCc1ncc(C[n+]2ccccc2C)c(N)n1 [amprolium],> 10,> 10,> 10,> 10,> 10,101,97.2,102,100,104,104,97.2,99.5,101,107,96.4,103,89.2,97.1,92.1,112,94.9,88.5,90.5,99.9,100,108,92.8,112,102,0,0,0,0.9,0
CCO[C@H]1O[C@@H]2O[C@@]3(C)CC[C@H]4[C@H](C)CC[C@@H]([C@H]1C)[C@@]24OO3 [artemotil],> 10,> 10,> 10,> 10,> 10,98.1,100,95.4,97.2,79.1,94.2,109,95.4,109,104,107,100,104,89.1,94.5,92.1,101,86.6,94.5,91.5,89.7,95.1,95.8,91.5,98,1,0,0.2,0,0
CC(=O)Oc1ccccc1C(=O)O [aspirin],> 10,> 10,> 10,> 10,> 10,96.5,93.5,104,98.3,103,102,90.1,94.1,92.6,101,95.2,100,93.8,104,109,92.4,89.3,81,80,89.7,90.7,96.7,90,96.2,108,0,0,0,3.8,0
CC(C)C(=O)OC[C@@]1(N=[N+]=[N-])O[C@@H](n2ccc(N)nc2=O)[C@H](OC(=O)C(C)C)[C@@H]1OC(=O)C(C)C [balapiravir],> 10,> 10,> 10,> 10,> 10,99.6,94.9,96,95.5,94.6,99,99.1,97,100,102,95.6,102,92.6,102,92.4,103,87,100,98.7,88.9,98.6,92.8,93.4,98.4,90.7,0,0,0,0,0
CC(C)(O)CC(=O)O [beta-hydroxy-beta-methylbutyrate],> 10,> 10,> 10,> 10,> 10,105,99.5,98.1,95.9,99.5,98.7,100,105,102,113,91.8,94.3,101,104,93.3,102,92.2,99.4,92.6,97.2,106,108,101,99.5,100,0,0,0,0,0
O=C(O)CCNC(=O)c1ccccc1 [betamipron],> 10,> 10,> 10,> 10,> 10,102,98,101,92.5,99.4,108,90.6,113,104,116,94.8,111,95.9,114,105,90.2,95.6,99.7,100,103,94.6,96.4,95.6,92.2,96.2,0,0,0,0,0
O=C(O)CCCC[C@@H]1SC[C@@H]2NC(=O)N[C@@H]21 [biotin],> 10,> 10,> 10,> 10,> 10,99.2,101,97.7,101,97.8,93.8,105,98,102,97.6,111,101,108,97.4,104,95.8,96.3,101,95.1,89.3,106,66.8,105,59.3,106,0,0,0,0.1,0
C[C@H](Oc1ccc(S(C)(=O)=O)cc1C(=O)N1CCN(c2ncc(C(F)(F)F)cc2F)CC1)C(F)(F)F [bitopertin],> 10,> 10,> 10,> 10,> 10,98.9,100,101,95.3,101,97.1,99,95.8,97.8,106,94.7,95.1,96.2,104,98.4,100,98.6,92.5,94.2,91.1,103,95.6,96.6,100,97.5,0,0,0,0,0
Oc1c(Br)cc(Br)c2cccnc12 [broxyquinoline],> 10,> 10,> 10,> 10,> 10,96,98.7,101,98.2,94.6,108,82.2,90.7,97.6,99,84.2,108,110,100,87.6,89.4,92.5,93.2,98.9,112,102,94.1,102,110,99,0,0,0,0,0
CCCCOc1ccc(CC(=O)NO)cc1 [bufexamac],> 10,> 10,> 10,> 10,> 10,100,97.8,98.1,96,99,95.8,91.2,104,98.2,99.3,95,94.6,87.5,99.9,98.2,91.6,89.5,96.7,90.6,92.8,81.9,103,89.2,96.1,85.1,0,0,0,0,0.1
CCCCc1ccc(C(N)=O)nc1 [bupicomide],> 10,> 10,> 10,> 10,> 10,99.9,94.5,103,93.6,102,97.9,84.9,103,84.7,99.3,93.8,103,92.6,116,114,94.6,81.3,94,90.8,88,96.6,99.9,96,100,107,0,0,0,0,0
OC[C@H]1O[C@H](O[C@H]2O[C@H](CO)[C@@H](O)[C@H](O)[C@H]2O)[C@H](O)[C@@H](O)[C@@H]1O [cabaletta],> 10,> 10,> 10,> 10,> 10,99.1,103,104,107,106,96.2,105,97.2,109,96.3,130,110,115,110,98.2,112,112,83.7,97.7,94.5,110,94.3,104,105,99.5,0,0,0,0,0
CCOc1nc2cccc(C(=O)O)c2n1Cc1ccc(-c2ccccc2-c2nnn[nH]2)cc1 [candesartan],> 10,> 10,> 10,> 10,> 10,94.2,96.8,94.4,99.3,102,91.1,95.7,100,99.7,105,103,100,106,98,94.5,104,97.5,106,90.1,92.5,102,97.6,95.3,92.7,108,0,0,0,0,0

# From the supplement of paper PMC13380429
